Laboratory results reported in patent US11499978B2, “Method for measuring quality of therapeutic cell through real-time glutathione measurement” (CELL2IN, INC., priority 2017, dated 2022).

Tests used:
[1] = system: hUC-MSCs; assay: mGSH distribution in hUC-MSCs after RSL3 (MitoFreSH, flow cytometry and confocal imaging); assay type: cell-based, human
Description: After the cultured human umbilical cord-derived mesenchymal stem cells (hUC-MSCs) at passage 4, 7 or 15 were treated with various concentrations of RSL3 and stained with MitoFreSH, the distribution pattern of mitochondrial GSH (mGSH) in the cells was confirmed by histograms using flow cytometry and confocal imaging.
hUC-MSCs at passage 4, 7 or 15 were prepared, seeded at 70000 cells/well in a 6-well cell culture plate, and cultured at 37° C. for 24 hours. The medium used in the culture was prepared by adding 10% fetal bovine serum and 1× penicillin-streptomycin to α-MEM. […] The cells detached from the plate were transferred to an FACS tube and stored on ice, and a fluorescence level was measured using a flow cytometer.
hUC-MSCs at passage 4, 7 or 15 were prepared, seeded at 7000 cells/100 μl per well in a 96-well cell culture plate, and cultured at 37° C. for 24 hours. […] To remove MitoFreSH-Tracer from the medium before measurement, the medium was exchanged with fresh 10 mM HEPES-containing HBSS, and fluorescence images were measured using a confocal imaging system, Operetta.
A F510/F580 ratio referring to a GSH mean value in cells was calculated by measuring fluorescence values of F510 (fluorescence value when MitoFreSH-Tracer was bound with SH) and F580 (fluorescence value of MitoFreSH-Tracer, which was not bound with SH) in cells and dividing the F510 value by the F580 value. […]

[2] = system: human dermal fibroblasts; assay: mGSH level in human dermal fibroblasts after RSL3; assay type: cell-based; settings: as the subculture continued; confocal imaging
Description: As described in the experiment for MSCs, human dermal fibroblasts subcultured several times were treated with RSL3 and the cells were stained with MitoFreSH-Tracer, and a ratio between cells maintaining mGSH and cells not maintaining mGSH was represented as a percentage through confocal imaging.

[3] = system: hUC-MSCs; assay: CD146 surface expression in mGSH High and mGSH Low hUC-MSCs after RSL3; assay type: cell-based, human; settings: P4 hUC-MSC group in which mGSH level is lowered by RSL3, compared with mGSH level-maintaining group
Description: To confirm whether the stem cell function of cells in which an mGSH level decreased is deteriorated under lipid oxidative stress caused by RSL3 treatment, an expression level of CD146, which is a cell surface protein known to be highly expressed in stem cells of high quality according to conventional literature, was confirmed through flow cytometry.
The cells were stained by the same method as a method of measuring a mitochondria GSH level through the flow cytometry described above, and detached from the plate using trypsin. The detached cells were treated with an antibody for flow cytometry with respect to CD146 to which a fluorescent material BUV395 was bound at 4° C. for 30 minutes, and washed with PBS. Using a flow cytometer, F510 and F580 fluorescence values for measuring a GSH level and a BUV395 fluorescence value for measuring CD146 expression were measured. Afterward, based on the point at which the histogram showing the F510/F580 distribution was divided into two peaks, the cells were divided into GSH^High cells (right peak) and GSH^Low cells (left peak) using FlowJo software, and a CD146-positive ratio of the corresponding cells is represented as a percentage (%).

[4] = system: T cells; assay: Anti-inflammatory effect of treated hUC-MSCs on T cells; assay type: cell-based
Description: The inventors observed an effect of the material on stem cells by treating each stem cells with a material for enhancing a glutathione evaluation parameter. When hUC-MSCs were subcultured in a L-AA2G-containing medium, CFU-F, migration capacity, and an anti-inflammatory effect were observed. A CFU-F assay (n=3) was performed by treating hUC-MSCs with 125 or 250 μg/mL of AA2G for three days. As shown in FIGS. 16A and 16B, it was confirmed that, when AA2G was treated, CFU-F increased. In addition, as hUC-MSCs were treated with 125 or 250 μg/mL of AA2G for three days, PDGF-AA-induced migration capacity (n=3) was analyzed. As shown in FIGS. 17A and 17B, it was confirmed that the migration capacity was increased by AA2G treatment. In addition, the reduction in T cell proliferation, the reduction in T cell differentiation, and the promotion of Treg cell differentiation were observed by treating hUC-MSCs with 125 or 250 μg/mL of AA2G for three days.
In addition, hUC-MSCs were cultured with ferrostatin-1 (0.2, 1, 2 and 4 μM) and liproxstatin-1 (0.1, 0.5, 1 and 2 μM), which control a glutathione level in cells by inhibiting lipid oxidation. […] Meanwhile, the hUC-MSCs were treated with 1 μM ferrostatin-1 for 24 hours, 0.2 mM GGC for 2 hours, and 2 mM GSH-EE for 2 hours. As a result, the reduction in T cell proliferation ability and the reduction in T cell differentiation capacity were observed, and promotion of Treg cell differentiation was observed.

[5] = system: hUC-MSCs; assay: CFU-F assay of hUC-MSCs; assay type: cell-based, human; settings: ferrostatin-1 0.2, 1, 2 and 4 μM, liproxstatin-1 0.1, 0.5, 1 and 2 μM, 24 hours, n=3
Description: The inventors observed an effect of the material on stem cells by treating each stem cells with a material for enhancing a glutathione evaluation parameter. When hUC-MSCs were subcultured in a L-AA2G-containing medium, CFU-F, migration capacity, and an anti-inflammatory effect were observed. A CFU-F assay (n=3) was performed by treating hUC-MSCs with 125 or 250 μg/mL of AA2G for three days. As shown in FIGS. 16A and 16B, it was confirmed that, when AA2G was treated, CFU-F increased. In addition, as hUC-MSCs were treated with 125 or 250 μg/mL of AA2G for three days, PDGF-AA-induced migration capacity (n=3) was analyzed. As shown in FIGS. 17A and 17B, it was confirmed that the migration capacity was increased by AA2G treatment. In addition, the reduction in T cell proliferation, the reduction in T cell differentiation, and the promotion of Treg cell differentiation were observed by treating hUC-MSCs with 125 or 250 μg/mL of AA2G for three days. […] Meanwhile, hUC-MSCs were cultured with a glutathione precursor such as γ-glutamyl cysteine (GGC, 0.1, 0.25, and 0.5 mM). A CFU-F assay (n=3) was performed by treating hUC-MSCs with each concentration of GGC for 2 hours. […] In addition, SDF1α and PDGF-AA-induced migration capacities (n=3) were analyzed for hUC-MSCs without treatment with GGC, and SDF1α and PDGF-AA-induced migration abilities (n=3) were analyzed by treating hUC-MSCs with the increasing concentrations of GGC. STI571 was used as a PDGFR kinase inhibitor. As shown in FIGS. 20A to 20C, it was confirmed that, according to an increase in GGC treatment concentration, SDF1α- and PDGF-AA-induced migration capacities were enhanced. A CFU-F assay (n=3) was performed by treating hUC-MSCs with 0.2, 1, 2, and 4 μM ferrostatin-1 and 0.1, 0.5, 1, and 2 μM liproxstatin-1 for 24 hours.

[6] = hUC-MSCs treated with 1 μM ferrostatin-1 24 h, 0.2 mM GGC 2 h, 2 mM GSH-EE 2 h

SMILES: COC(=O)c1ccc([C@@H]2c3[nH]c4ccccc4c3C[C@@H](C(=O)OC)N2C(=O)CCl)cc1 [RSL3, 1S,3R-RAS-selective lethal 3]
- mGSH levels ([1]; hUC-MSCs at passage 4, 7 or 15, RSL3 0.1/0.5/1 μM, depending on RSL3 concentration and passage number): reduced
- proportion of cells in which mGSH decreases by treatment with RSL3 [2]: increased
- lowering of CD146-positive ratio [3]: approximately 25%

SMILES: CCOC(=O)c1ccc(NC2CCCCC2)c(N)c1 [ferrostatin-1]
- effect of RSL3 on mGSH upon Ferrostatin-1 treatment ([1]; hUC-MSCs treated with RSL3): disappeared
- anti-inflammatory effect of the hUC-MSCs ([4]; ferrostatin-1 1 μM 24 h, GGC 0.2 mM 2 h, FIGS. 27, 28A to 28C): did not alter
- T cell differentiation capacity [4, 6]: reduction
- T cell proliferation ability [4, 6]: reduction
- Treg cell differentiation [4, 6]: promotion
- CFU-F [5]: improved
